Common to all, as to test: ≥ marks a high value that may be exact or a test limit, other limits are often not marked, values filed in µg/mL are converted to µM
Assay [1] deals with Candida parapsilosis.
The subject of assay [2] is Zymomonas mobilis ATCC 10988.
Assay [3] has as its system Escherichia coli DH5alpha.
The subject of assay [4] is Bacillus subtilis DELTA.
Assay [5] deals with Rhizoctonia solani.
Assay [6] has as its system Pectobacterium carotovorum.
The test system of assay [7] is Fusarium solani.
Assay [8] deals with Trichoderma asperellum.
For assay [9], the system named is Bacillus subtilis ATCC 23857.
Assay [10] relates to Xanthomonas campestris pv. citri.
Assay [11] deals with Ramulariopsis gossypii.
The subject of assay [12] is Bacillus cereus ATCC 14579.
In assay [13] the test system is Pseudomonas aeruginosa ATCC 27853.
For assay [14], the system named is Escherichia coli ATCC 25922.
Assay [15] deals with Staphylococcus aureus ATCC 25923.
In assay [16] the test system is Fusarium oxysporum.
For assay [17], the system named is Cryptococcus neoformans ATCC 28957.
For assay [18], the system named is Pseudomonas syringae pv. tabaci.
Assay [19] deals with Fusarium oxysporum f.sp. vasinfectum.
The test system of assay [20] is Candida albicans ATCC 90028.
In assay [21] the test system is Pseudomonas aeruginosa PAO1.
For assay [22], the system named is Escherichia coli C600.
Assay [23] has as its system Staphylococcus aureus 209P.
For assay [24], the system named is Escherichia coli CGMCC 1.8732.
Assay [25] concerns Pseudomonas aeruginosa CGMCC 1.2421.
Assay [26] concerns Staphylococcus epidermidis CGMCC 1.4260.
In assay [27] the test system is Klebsiella pneumoniae CGMCC 1.1736.
The test system of assay [28] is Bacillus subtilis CGMCC 1.3376.
Assay [29] relates to Staphylococcus aureus CGMCC 1.8721.
Assay [30] relates to Streptococcus mutans UA159.
For assay [31], the system named is Streptococcus sanguinis ATCC 10556.
For assay [32], the system named is Streptococcus sobrinus ATCC 6715.

≈ marks a conversion by molar mass, not a printed value. Some results are limits rather than exact numbers.

With `CC[C@H](C)[C@H](NC(=O)[C@H](Cc1ccccc1)NC(=O)[C@H](CCCCN)NC(=O)[C@H](CC(C)C)NC(=O)[C@H](CC(C)C)NC(=O)[C@@H](N)CCCN=C(N)N)C(=O)N[C@@H](CCCCN)C(=O)N[C@@H](CCCCN)C(=O)N[C@@H](CC(C)C)C(=O)N[C@@H](CC(C)C)C(N)=O` [RLLKFIKKLL], the MIC in assay [1] was 23.6 µM (≈ 30 µg/mL); in [2], 7.86 µM (≈ 9.99 µg/mL); in assay [3], ≥ 315 µM; in assay [4], 31.5 µM (≈ 40 µg/mL).
`CC[C@H](C)[C@H](NC(=O)[C@@H](NC(=O)[C@H](Cc1c[nH]c2ccccc12)NC(=O)[C@H](CCCCN)NC(=O)[C@H](Cc1ccccc1)NC(=O)[C@@H](NC(=O)[C@H](CCCCN)NC(=O)[C@@H](NC(=O)[C@H](CC(C)C)NC(=O)[C@H](CCCCN)NC(=O)[C@H](CCCN=C(N)N)NC(=O)CNC(=O)[C@H](CC(C)C)NC(=O)[C@H](CCCCN)NC(=O)[C@H](Cc1ccccc1)NC(=O)CN)C(C)C)C(C)C)[C@@H](C)CC)C(N)=O` [GFKLGRKLVKVFKWII]: the MIC amounted to 1 µM (≈ 1.93 µg/mL) in [5]; 0.5 µM (≈ 0.966 µg/mL) in assay [6]; 0.5 µM (≈ 0.966 µg/mL) in [7]; 1 µM (≈ 1.93 µg/mL) in assay [8]; 1 µM (≈ 1.93 µg/mL) in assay [9]; 1 µM (≈ 1.93 µg/mL) in assay [10]. The MIC in [11] was 0.5 µM (≈ 0.966 µg/mL); in [12], 1 µM (≈ 1.93 µg/mL); in assay [13], 3.33 µM (≈ 6.43 µg/mL); in [14], 0.5 µM (≈ 0.966 µg/mL); in [15], 0.83 µM (≈ 1.6 µg/mL); in assay [16] it was 0.5 µM (≈ 0.966 µg/mL). For the same compound, the MIC in [17] was 1 µM (≈ 1.93 µg/mL); in assay [18], 1 µM (≈ 1.93 µg/mL); in [19], 0.5 µM (≈ 0.966 µg/mL); in assay [20], 1 µM (≈ 1.93 µg/mL).
For `CC[C@H](C)[C@H](NC(=O)[C@H](CCCCN)NC(=O)[C@H](CCCCN)NC(=O)[C@H](CC(C)C)NC(=O)[C@H](CC(C)C)NC(=O)CN)C(=O)N[C@@H](CCCCN)C(=O)N[C@@H](CCCN=C(N)N)C(=O)N[C@@H](CC(C)C)C(=O)N[C@@H](CC(C)C)C(N)=O` [GLLKKIKRLL], the minimum inhibitory concentration (MIC) in assay [21] is 5.92 µM (≈ 6.99 µg/mL); in assay [1], 25.4 µM (≈ 30 µg/mL); in assay [2], ≥ 33.9 µM; in assay [3], ≥ 169 µM; in [4], ≥ 169 µM.
For the compound `CC[C@H](C)[C@@H]1NC(=O)CNC(=O)[C@H](CCCN=C(N)N)NC(=O)[C@H](Cc2ccc(O)cc2)NC(=O)[C@@H]2CSSC[C@H](NC1=O)C(=O)N[C@@H](Cc1ccc(O)cc1)C(=O)N[C@@H](CCCN=C(N)N)C(=O)N[C@@H](CCCN=C(N)N)C(=O)N[C@H](C(=O)N[C@@H](CCCN=C(N)N)C(=O)O)CSSC[C@H](NC(=O)[C@H](Cc1c[nH]c3ccccc13)NC(=O)[C@@H](N)CCCCN)C(=O)N[C@@H](Cc1ccccc1)C(=O)N[C@@H](CCCN=C(N)N)C(=O)N[C@@H](CCCN=C(N)N)C(=O)N2` [KWCFRRCYRGICYRRCR], the MIC is 1.56 µM (≈ 3.62 µg/mL) in [22], > 50 µM in [21] and ≥ 50 µM in [23].
With `CC[C@H](C)[C@H](NC(=O)[C@H](C)N)C(=O)NCC(=O)N[C@@H](CO)C(=O)N[C@H](C(=O)N[C@@H](CC(C)C)C(=O)NCC(=O)N[C@@H](CCCN=C(N)N)C(=O)N[C@@H](CC(C)C)C(=O)N[C@@H](C)C(=O)N[C@@H](CCCCN)C(=O)NCC(=O)N[C@@H](CC(C)C)C(=O)N1CCC[C@H]1C(=O)N[C@H](C(=O)N[C@@H](CC(C)C)C(=O)N[C@H](C(=O)N[C@@H](CO)C(=O)N[C@@H](Cc1c[nH]c2ccccc12)C(=O)N[C@H](C(=O)N[C@@H](CCCCN)C(=O)N[C@@H](CC(N)=O)C(=O)N[C@@H](CCCN=C(N)N)C(N)=O)[C@@H](C)CC)[C@@H](C)CC)[C@@H](C)O)[C@@H](C)CC` [AIGSILGRLAKGLPTLISWIKNR], the minimal inhibitory concentration (MIC) came to 12.5 µM (≈ 31 µg/mL) in [24]; 12.5 µM (≈ 31 µg/mL) in assay [25]; 3.13 µM (≈ 7.75 µg/mL) in assay [26]; 12.5 µM (≈ 31 µg/mL) in assay [27]; 3.13 µM (≈ 7.75 µg/mL) in assay [28]; 3.13 µM (≈ 7.75 µg/mL) in [29].
In the case of `CC(C)[C@H](NC(=O)[C@H](CCCCN)NC(=O)[C@H](CCCCN)NC(=O)[C@H](Cc1c[nH]c2ccccc12)NC(=O)[C@H](CCCCN)NC(=O)[C@H](CCCCN)NC(=O)[C@H](Cc1ccccc1)NC(=O)[C@H](Cc1ccccc1)NC(=O)[C@H](CCCCN)NC(=O)[C@H](CCCCN)NC(=O)[C@H](Cc1c[nH]c2ccccc12)NC(=O)CN)C(=O)N[C@@H](Cc1c[nH]c2ccccc12)C(=O)N[C@@H](CCCCN)C(=O)O` [GWKKFFKKWKKVWK], the values for the minimal inhibitory concentration (MIC) in assay [30], in [31] and in [32] were 8.31 µM (≈ 16 µg/mL), 16.6 µM (≈ 32 µg/mL) and 8.31 µM (≈ 16 µg/mL), respectively.
Take `CC(C)[C@H](NC(=O)[C@H](CCCN=C(N)N)NC(=O)[C@H](CCCCN)NC(=O)CNC(=O)[C@@H](NC(=O)[C@H](CCCN=C(N)N)NC(=O)[C@H](Cc1c[nH]c2ccccc12)NC(=O)[C@H](Cc1c[nH]c2ccccc12)NC(=O)[C@H](CCCCN)NC(=O)[C@H](CCCCN)NC(=O)[C@H](Cc1ccccc1)NC(=O)[C@H](Cc1ccccc1)NC(=O)[C@H](CCCN=C(N)N)NC(=O)CNC(=O)[C@H](Cc1c[nH]c2ccccc12)NC(=O)CN)C(C)C)C(=O)NCC(=O)N[C@@H](CCCCN)C(=O)O` [GWGRFFKKWWRVGKRVGK]: the MIC in assay [30], in assay [31] and in assay [32] was 7.02 µM (≈ 16 µg/mL) in each case.
For `CC[C@H](C)[C@H](NC(=O)[C@H](CO)NC(=O)CNC(=O)[C@@H](NC(=O)[C@@H](N)CCCN=C(N)N)[C@@H](C)CC)C(=O)N[C@@H](CC(C)C)C(=O)NCC(=O)N[C@@H](C)C(=O)N[C@@H](CC(C)C)C(=O)N[C@@H](C)C(=O)N[C@@H](CCCCN)C(=O)NCC(=O)N[C@@H](CC(C)C)C(=O)N1CCC[C@H]1C(=O)N[C@H](C(=O)N[C@@H](CC(C)C)C(=O)N[C@@H](CCCCN)C(=O)N[C@@H](CO)C(=O)N[C@@H](Cc1c[nH]c2ccccc12)C(=O)N[C@H](C(=O)N[C@@H](CCCCN)C(=O)N[C@@H](CC(N)=O)C(=O)N[C@@H](CCCN=C(N)N)C(N)=O)[C@@H](C)CC)[C@@H](C)O` [RIGSILGALAKGLPTLKSWIKNR], the MIC in assay [24] is 25 µM (≈ 62.3 µg/mL); in assay [25] it was 12.5 µM (≈ 31.2 µg/mL); in assay [26], 6.25 µM (≈ 15.6 µg/mL); in [27] it was 25 µM (≈ 62.3 µg/mL); in [28], 6.25 µM (≈ 15.6 µg/mL); in assay [29], ≥ 100 µM.
